# Laboratory results from patent US20200124600A1, “METHODS OF TREATING AUTOIMMUNE AND INFLAMMATORY DISEASES” (Genentech, Inc., priority 2017, published 2020).
# Tests used:
# human memory B cells [1] = assay: CD40L induced plasmablast differentiation of memory B cells, flow cytometry; type: cell-based
# Source text: It was confirmed that plasmablast differentiation was regulated by Bruton's Tyrosine Kinase (BTK) activity by performing an in vitro plasmablasts differentiation assay where human memory B cells were put into differentiating conditions, and were subsequently measured after 5 days using flow cytometry quantification for CD20^loCD38^++ plasmablasts. […] GDC-0852 is (S)-2-(5-Fluoro-2-(hydroxymethyl)-3-(1-methyl-5-(5-(2-methyl-4-(oxetan-3-y-1)piperazin-1-yl)pyridin-2-ylamino)-6-oxo-1,6-dihydropyridin-3-yl)-phenyl)-3,4,6,7,8,9-hexahydropyrido[3,4-b]indolizin-1(2H)-one, the structure of which is shown below:
# Plasmablast Differentiation: Memory B cells were isolated from Healthy donor PBMC (Miltenyi Memory B cell isolation kit). […]
# (§1) Statistical analyses were performed using either <> or custom scripts written in the R programming language. […] IC50 values for BTK inhibition was calculated using the GraphPad Prism software. […]
# (§2) Results: The differentiation of B cells into plasmablast can occur through multiple activation stimuli and involves distinct molecular changes. […] We evaluated the effect of the BTK inhibitor GDC-0852 in the plasmablast differentiation process, either by a T cell-mediated response using CD40L stimulation or a T cell-independent response using the Toll-like receptor ligand, CpG.
# human memory B cells [2] = assay: CpG-mediated plasmablast differentiation of memory B cells, flow cytometry; type: cell-based; settings: B-cell, memory B cells from healthy donors, ODN2006 5 ug/ml plus cytokines, n=3, read-out: IC50 potency, inhibition of CpG-mediated plasmablast differentiation
# Description: (§3) Plasmablast Differentiation: Memory B cells were isolated from Healthy donor PBMC (Miltenyi Memory B cell isolation kit). For the Plasmablast differentiation, 1.5×10^5/ml memory B cells were then cultured in the presence of a cocktail of cytokines, IL-2(20 U/ml), IL-10 (50 ng/ml), IL-15(10 ng/ml), IL-6 (50 ng/ml), IFNa (10 ng/ml) and stimulated with either ODN2006 (TLR-9 ligand) 5 ug/ml, or CD40L (3 ug/ml) for 5 days. The plasmablast differentiation was carried out in the presence of vehicle alone (DMSO) and GDC-0852 at various concentrations, using a 3 fold dose titration of inhibitor starting at 10 uM. Flow cytometry was performed to enumerate ([…]) plasmablast percentages and assess the inhibition by GDC-0852.
# as §1, §2
# [3] = tested on: plasmablast signature genes IgJ, MZB1, TXNDC5; assay: Plasmablast signature gene expression in differentiated memory B cells, Fluidigm quantitative RT-PCR; type: cell-based, human; settings: 370 nM vs DMSO, 5 days, n=4 donors
# Description: FIGS. 8A, 8B, 8C and 8D. BTK inhibition reduces the plasmablast gene signature. Memory B cells from 4 healthy donors were differentiated into plasmablasts using conditions described above, in the presence of DMSO vehicle or 370 nM GDC-0852. Expression of plasmablast signature genes was measured by Fluidigm, and normalized to a housekeeping gene (HPRT1). Expression values are plotted as the relative transcript abundance to the housekeeping gene. The plasmablast signature was calculated as the geometric mean of the relative abundances of the three individual genes.
# as §3
# RNA Preparation: RNA was extracted from the cells in culture at 5 days from the DMSO and GDC-0852 (370 nM) treated cells (n=4). Cells were disrupting in RLT buffer using the Qiashredder (Qiagen, Valencia, Calif.) and then RNA was extracted using the RNeasy mini kit (Qiagen) including the on-column DNase digestion. The concentration of total RNA and integrity of RNA samples was determined using the NanoDrop 8000 (Thermo Scientific). The isolated RNA was used for the Fluidigm quantitative RT-PCR analyses.
# QT PCR: cDNA synthesis was performed on 100 ng total-RNA using an iScript cDNA synthesis kit (Biorad, Hercules, Calif.). Gene-specific pre-amplification was performed (Applied Biosystems) for 3 genes (IgJ, MZB1, TXNDC5 including housekeeping genes TMEM55B. RT-PCR was performed using the BioMark 48.48 Dynamic Arrays (Fluidigm Corporation) using the manufacturer's protocol. Data were collected using the BioMark Data Collection Software and CT values were obtained using the BioMark RT-PCR Analysis Software (V.2.1.1, Fluidigm). The relative abundance (dCt) to HPRT1 was calculated: 2 log−(average Ct gene−average Ct HPRT1). For statistical analyses, values below the lower limit of detection were set to be 1 Ct lower than the lowest recorded value.
# as §1
# plasmablast signature [4] = assay: Plasmablast signature in blood of extra-renal lupus patients, EXPLORER clinical trial; type: in vivo, human; settings: for expression of the plasmablast signature compared to patients treated with azathioprine: screening samples
# Description: (§4) Blood Sample Analysis: 3-gene plasmablast signature expression assay. Blood was collected in PAXgene RNA tubes (PreAnalytiX); total RNA was extracted using commercially available kits according to manufacturer instructions (Qiagen).
# (§5) Alternatively, expression of candidate biomarker genes in blood samples was quantified by Fluidigm qPCR assays. 3-gene score was calculated from the mean of IgJ, TXNDC5 and MZB1, and normalized using reference gene TMEM55B. Blood samples were assessed using this assay developed on the Cobas 4800 platform (Roche Molecular Systems).
# (§6) Plasmablast signature values were collected from two cohorts of moderate to severe lupus patients from phase II clinical trials assessing the safety and efficacy of rituximab in SLE. The cohorts were patients with either lupus nephritis (LUNAR) or extra-renal lupus (EXPLORER). Mixed effects modeling of plasmablast signature values over the course of treatment, incorporating covariates for age, race, concomitant medications, interferon activity, SLEDAI, visit, treatment arm and their interaction, with patient modeled as a random effect, identified a profound decrease in plasmablast signature specifically within the rituximab treated patients (FIG. 4A, 4B). This effect was most apparent in the time points two weeks after receiving rituximab infusion, with diminishing effect over time.
# In the EXPLORER trial, patients were monitored for presence of antibodies directed against mouse-human chimeric antibodies (HACA). […] Using the same linear mixed effects model, as above, a 2.8-fold higher expression of plasmablast marker genes was found in patients that went on to develop HACA (p=0.0007).
# Previous studies identified an association between different immunosuppressive treatments and reduced expression of plasmablast-associated genes.
# plasmablast signature [5] = assay: Plasmablast signature in blood of lupus nephritis patients, LUNAR clinical trial; type: in vivo, human
# Description: as §4, §5
# as §6, with “time. […]” for “time.”
compound,measurement,setting,value
"C[C@H]1CN(C2COC2)CCN1c1ccc(Nc2cc(-c3cc(F)cc(N4CCc5c(cc6n5CCCC6)C4=O)c3CO)cn(C)c2=O)nc1 [GDC-0852, (S)-2-(5-Fluoro-2-(hydroxymethyl)-3-(1-methyl-5-(5-(2-methyl-4-(oxetan-3-y-1)piperazin-1-yl)pyridin-2-ylamino)-6-oxo-1,6-dihydropyridin-3-yl)-phenyl)-3,4,6,7,8,9-hexahydropyrido[3,4-b]indolizin-1(2H)-one]",IC50,"human memory B cells [1]; Homo sapiens, B-cell, 120 h, memory B cells from healthy donors, CD40L 3 ug/ml plus cytokines, day 5, FACS, read-out: IC50 potency, inhibition of CD40L induced plasmablast differentiation",20 nM
same,inhibition of CD40L induced plasmablast differentiation,"human memory B cells [1]; human memory B cells, measured after 5 days, CD20loCD38++ plasmablasts by flow cytometry",inhibited CD40L induced plasmablast differentiation in a dose-dependent manner
same,IC50,human memory B cells [2],48 nM
same,expression of plasmablast signature gene MZB1,[3]; p=0.0023,significant decrease
same,composite plasmablast 3 gene signature,[3]; p=0.0026,significant decrease
same,expression of plasmablast signature gene TXNDC5,[3]; p=0.0032,significant decrease
same,expression of plasmablast signature gene IgJ,[3]; p=0.011,significant decrease
CN(Cc1cnc2nc(N)nc(N)c2n1)c1ccc(C(=O)N[C@@H](CCC(=O)O)C(=O)O)cc1 [methotrexate],expression of the plasmablast signature compared to patients treated with azathioprine,plasmablast signature [4],much lower expression
"COc1c(C)c2c(c(O)c1C/C=C(\C)CCC(=O)OCCN1CCOCC1)C(=O)OC2 [mycophenolate, mycophenolate mofetil]",expression of the plasmablast signature compared to patients treated with azathioprine,plasmablast signature [4],much lower expression
same,expression of plasmablast signature genes in patients on treatment at baseline,"plasmablast signature [5]; baseline, relatively few patients in the MMF pool",trend toward lower expression
rituximab,change in plasmablast signature after treatment in patients that went on to develop anti-drug antibodies (HACA),plasmablast signature [4]; HACA-positive patients,limited to no decrease
same,maximum decrease in plasmablast signature,"plasmablast signature [4]; week 28, two weeks following the fourth infusion, p=2×10^−11",3.48 fold
same,reduction of plasmablast signature expression,"plasmablast signature [5]; week 28 time point, p=0.0011",3.31 fold
